PMC9532703, “A novel small molecule RK-019 inhibits FGFR2-amplification gastric cancer cell proliferation and induces apoptosis in vitro and in vivo” (Frontiers in Pharmacology, 2022)

Key:
Assay in all cases: Kinase selectivity panel
Format in all cases: biochemical
Conditions in all cases: read-out: Inhibition(%) @ 1 µM RK-019
MKK4(m) = molecular target: T1, MKK4(m) (Mus musculus, UniProt P47809)
T1 construct: purchased Eurofins Discovery Services (KinaseProfiler)

NEK6(h) = molecular target: T2, NEK6(h) (Homo sapiens, UniProt Q9HC98)
T2 construct: purchased Eurofins Discovery Services (KinaseProfiler)
Outline: (§1)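 ATP-site competition binding, in vitro; recombinant human kinase, single concentration 1 µM; % inhibition read-out.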

Met(Y1248C)(h) = molecular target: T3, Met(Y1248C)(h) (Homo sapiens, UniProt P08581, Y1230C)
T3 construct: purchased Eurofins Discovery Services (KinaseProfiler)
Outline: as §1

WNK3(h) = molecular target: T4, WNK3(h) (Homo sapiens, UniProt Q9BYP7)
T4 construct: purchased Eurofins Discovery Services (KinaseProfiler)
Outline: as §1

BrSK2(h) = molecular target: T5, BrSK2(h) (Homo sapiens, UniProt Q8IWQ3)
T5 construct: purchased Eurofins Discovery Services (KinaseProfiler)
Outline: as §1

SNRK(h) = molecular target: T6, SNRK(h) (Homo sapiens, UniProt Q9NRH2)
T6 construct: purchased Eurofins Discovery Services (KinaseProfiler)
Outline: as §1

GCK(h) = molecular target: T7, GCK(h) (Homo sapiens, UniProt Q12851)
T7 construct: purchased Eurofins Discovery Services (KinaseProfiler)
Outline: as §1

STK32B(h) = molecular target: T8, STK32B(h) (Homo sapiens, UniProt Q9NY57)
T8 construct: purchased Eurofins Discovery Services (KinaseProfiler)
Outline: as §1

Arg(h) = molecular target: T9, Arg(h) (Homo sapiens, UniProt P42684)
T9 construct: purchased Eurofins Discovery Services (KinaseProfiler)
Outline: as §1

GCN2(h) = molecular target: T10, GCN2(h) (Homo sapiens, UniProt Q9P2K8)
T10 construct: purchased Eurofins Discovery Services (KinaseProfiler)
Outline: as §1

PIP5K1a(h) = molecular target: T11, PIP5K1a(h) (Homo sapiens, UniProt Q99755)
T11 construct: purchased Eurofins Discovery Services (KinaseProfiler)
Outline: as §1

PIP4K2a(h) = molecular target: T12, PIP4K2a(h) (Homo sapiens, UniProt P48426)
T12 construct: purchased Eurofins Discovery Services (KinaseProfiler)
Outline: as §1

MEK2(h) = molecular target: T13, MEK2(h) (Homo sapiens, UniProt P36507)
T13 construct: purchased Eurofins Discovery Services (KinaseProfiler)
Outline: as §1

MAP4K5(h) = molecular target: T14, MAP4K5(h) (Homo sapiens, UniProt Q9Y4K4)
T14 construct: purchased Eurofins Discovery Services (KinaseProfiler)
Outline: as §1

IKKα(h) = molecular target: T15, IKKα(h) (Homo sapiens, UniProt O15111)
T15 construct: purchased Eurofins Discovery Services (KinaseProfiler)
Outline: as §1

JAK1(h) = molecular target: T16, JAK1(h) (Homo sapiens, UniProt P23458)
T16 construct: purchased Eurofins Discovery Services (KinaseProfiler)
Outline: as §1

FGFR2(N549H)(h) = molecular target: T17, FGFR2(N549H)(h) (Homo sapiens, UniProt P21802, N549H)
T17 construct: purchased Eurofins Discovery Services (KinaseProfiler)
Outline: as §1

PKBα(h) = molecular target: T18, PKBα(h) (Homo sapiens, UniProt P31749)
T18 construct: purchased Eurofins Discovery Services (KinaseProfiler)
Outline: as §1

SRPK2(h) = molecular target: T19, SRPK2(h) (Homo sapiens, UniProt P78362)
T19 construct: purchased Eurofins Discovery Services (KinaseProfiler)
Outline: as §1

EphB3(h) = molecular target: T20, EphB3(h) (Homo sapiens, UniProt P54753)
T20 construct: purchased Eurofins Discovery Services (KinaseProfiler)
Outline: as §1

[1] = molecular target: T21, PI3 Kinase (p110a/p85a)(h) (Homo sapiens, UniProt P42336)
T21 construct: purchased Eurofins Discovery Services (KinaseProfiler)
Outline: as §1

PI3KC2g(h) = molecular target: T22, PI3KC2g(h) (Homo sapiens, UniProt O75747)
T22 construct: purchased Eurofins Discovery Services (KinaseProfiler)
Outline: as §1

MELK(h) = molecular target: T23, MELK(h) (Homo sapiens, UniProt Q14680)
T23 construct: purchased Eurofins Discovery Services (KinaseProfiler)
Outline: as §1

Aurora-B(h) = molecular target: T24, Aurora-B(h) (Homo sapiens, UniProt Q96GD4)
T24 construct: purchased Eurofins Discovery Services (KinaseProfiler)
Outline: as §1

CaMKIV(h) = molecular target: T25, CaMKIV(h) (Homo sapiens, UniProt Q16566)
T25 construct: purchased Eurofins Discovery Services (KinaseProfiler)
Outline: as §1

Mnk2(h) = molecular target: T26, Mnk2(h) (Homo sapiens, UniProt Q9HBH9)
T26 construct: purchased Eurofins Discovery Services (KinaseProfiler)
Outline: as §1

FGFR1(V561M)(h) = molecular target: T27, FGFR1(V561M)(h) (Homo sapiens, UniProt P11362, V561M)
T27 construct: purchased Eurofins Discovery Services (KinaseProfiler)
Outline: as §1

Met(D1246N)(h) = molecular target: T28, Met(D1246N)(h) (Homo sapiens, UniProt P08581, D1228N)
T28 construct: purchased Eurofins Discovery Services (KinaseProfiler)
Outline: as §1

ALK2(h) = molecular target: T29, ALK2(h) (Homo sapiens, UniProt Q04771)
T29 construct: purchased Eurofins Discovery Services (KinaseProfiler)
Outline: as §1

CLK4(h) = molecular target: T30, CLK4(h) (Homo sapiens, UniProt Q9HAZ1)
T30 construct: purchased Eurofins Discovery Services (KinaseProfiler)
Outline: as §1

TrkB(h) = molecular target: T31, TrkB(h) (Homo sapiens, UniProt Q16620)
T31 construct: purchased Eurofins Discovery Services (KinaseProfiler)
Outline: as §1

GRK3(h) = molecular target: T32, GRK3(h) (Homo sapiens, UniProt P35626)
T32 construct: purchased Eurofins Discovery Services (KinaseProfiler)
Outline: as §1

c-RAF(h) = molecular target: T33, c-RAF(h) (Homo sapiens, UniProt P04049)
T33 construct: purchased Eurofins Discovery Services (KinaseProfiler)
Outline: as §1

DYRK3(h) = molecular target: T34, DYRK3(h) (Homo sapiens, UniProt O43781)
T34 construct: purchased Eurofins Discovery Services (KinaseProfiler)
Outline: as §1

PDHK4(h) = molecular target: T35, PDHK4(h) (Homo sapiens, UniProt Q16654)
T35 construct: purchased Eurofins Discovery Services (KinaseProfiler)
Outline: as §1

PKCι(h) = molecular target: T36, PKCι(h) (Homo sapiens, UniProt P41743)
T36 construct: purchased Eurofins Discovery Services (KinaseProfiler)
Outline: as §1

MAK(h) = molecular target: T37, MAK(h) (Homo sapiens, UniProt P20794)
T37 construct: purchased Eurofins Discovery Services (KinaseProfiler)
Outline: as §1

T33 sequence (P04049 whole entry): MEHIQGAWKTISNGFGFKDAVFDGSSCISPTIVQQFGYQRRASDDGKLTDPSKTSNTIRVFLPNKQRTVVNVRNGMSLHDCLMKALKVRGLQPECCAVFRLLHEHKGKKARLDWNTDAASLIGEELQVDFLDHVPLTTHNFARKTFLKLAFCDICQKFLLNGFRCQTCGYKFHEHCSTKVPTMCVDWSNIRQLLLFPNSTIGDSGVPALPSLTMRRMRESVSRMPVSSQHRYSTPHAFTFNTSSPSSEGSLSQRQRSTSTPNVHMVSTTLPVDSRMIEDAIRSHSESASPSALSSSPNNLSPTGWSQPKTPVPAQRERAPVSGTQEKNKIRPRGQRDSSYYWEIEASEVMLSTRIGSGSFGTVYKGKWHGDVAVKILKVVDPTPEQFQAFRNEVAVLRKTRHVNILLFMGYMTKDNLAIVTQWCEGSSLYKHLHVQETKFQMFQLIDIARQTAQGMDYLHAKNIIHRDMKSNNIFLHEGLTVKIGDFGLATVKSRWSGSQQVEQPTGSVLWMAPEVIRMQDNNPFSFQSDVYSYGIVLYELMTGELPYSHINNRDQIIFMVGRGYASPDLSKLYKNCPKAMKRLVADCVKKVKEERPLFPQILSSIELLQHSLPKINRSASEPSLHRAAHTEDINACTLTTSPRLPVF
T17 sequence (P21802 22-821 N549H): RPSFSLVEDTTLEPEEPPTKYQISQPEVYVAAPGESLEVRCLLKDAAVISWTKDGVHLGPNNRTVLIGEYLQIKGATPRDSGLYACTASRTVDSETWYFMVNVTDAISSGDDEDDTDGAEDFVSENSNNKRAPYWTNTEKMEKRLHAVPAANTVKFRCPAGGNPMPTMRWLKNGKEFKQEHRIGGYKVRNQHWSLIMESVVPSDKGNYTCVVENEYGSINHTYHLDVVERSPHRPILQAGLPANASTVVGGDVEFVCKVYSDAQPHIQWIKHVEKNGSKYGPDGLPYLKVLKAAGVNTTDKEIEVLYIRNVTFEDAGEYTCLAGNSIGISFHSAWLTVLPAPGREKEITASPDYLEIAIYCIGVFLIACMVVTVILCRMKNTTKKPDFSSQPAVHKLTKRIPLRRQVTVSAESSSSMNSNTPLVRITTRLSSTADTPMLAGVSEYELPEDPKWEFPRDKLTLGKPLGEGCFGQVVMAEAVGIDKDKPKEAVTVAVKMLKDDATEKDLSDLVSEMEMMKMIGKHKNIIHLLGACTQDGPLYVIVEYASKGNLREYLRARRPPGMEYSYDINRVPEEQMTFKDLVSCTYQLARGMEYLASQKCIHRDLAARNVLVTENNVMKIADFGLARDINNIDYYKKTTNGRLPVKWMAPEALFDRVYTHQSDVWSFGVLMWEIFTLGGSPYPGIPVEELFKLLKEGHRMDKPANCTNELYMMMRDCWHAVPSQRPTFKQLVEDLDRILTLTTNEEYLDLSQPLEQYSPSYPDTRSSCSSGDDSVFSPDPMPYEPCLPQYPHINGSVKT
T16 sequence (P23458 whole entry): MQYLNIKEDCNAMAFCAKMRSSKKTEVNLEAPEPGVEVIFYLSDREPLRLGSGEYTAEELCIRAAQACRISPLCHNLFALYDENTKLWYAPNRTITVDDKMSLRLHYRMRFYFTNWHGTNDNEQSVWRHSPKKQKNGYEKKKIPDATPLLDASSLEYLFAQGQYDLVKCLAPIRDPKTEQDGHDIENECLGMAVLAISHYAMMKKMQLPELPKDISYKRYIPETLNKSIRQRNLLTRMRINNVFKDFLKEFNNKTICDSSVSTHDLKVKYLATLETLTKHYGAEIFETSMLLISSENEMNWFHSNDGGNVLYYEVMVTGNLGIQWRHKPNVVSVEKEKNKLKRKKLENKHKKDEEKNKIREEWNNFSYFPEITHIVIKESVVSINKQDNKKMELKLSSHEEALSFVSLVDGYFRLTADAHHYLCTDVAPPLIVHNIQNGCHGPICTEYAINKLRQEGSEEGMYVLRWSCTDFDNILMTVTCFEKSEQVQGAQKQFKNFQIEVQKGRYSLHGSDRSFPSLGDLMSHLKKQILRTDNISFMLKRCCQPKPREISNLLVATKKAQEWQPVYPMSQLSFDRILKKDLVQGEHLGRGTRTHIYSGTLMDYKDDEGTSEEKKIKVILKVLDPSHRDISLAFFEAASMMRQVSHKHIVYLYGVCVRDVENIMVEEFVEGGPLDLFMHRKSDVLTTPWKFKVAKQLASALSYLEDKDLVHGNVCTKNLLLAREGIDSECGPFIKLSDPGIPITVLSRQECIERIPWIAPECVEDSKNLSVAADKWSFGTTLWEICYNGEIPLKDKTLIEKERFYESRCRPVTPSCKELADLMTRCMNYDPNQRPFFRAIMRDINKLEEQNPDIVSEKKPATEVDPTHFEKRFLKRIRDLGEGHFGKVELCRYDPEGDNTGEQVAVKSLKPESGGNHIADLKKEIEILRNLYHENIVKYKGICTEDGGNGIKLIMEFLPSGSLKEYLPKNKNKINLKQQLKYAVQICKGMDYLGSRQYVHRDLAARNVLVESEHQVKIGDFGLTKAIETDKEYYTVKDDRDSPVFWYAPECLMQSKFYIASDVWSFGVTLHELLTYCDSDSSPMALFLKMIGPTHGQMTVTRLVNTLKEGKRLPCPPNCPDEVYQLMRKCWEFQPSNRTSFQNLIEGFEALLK
T37 sequence (P20794 whole entry): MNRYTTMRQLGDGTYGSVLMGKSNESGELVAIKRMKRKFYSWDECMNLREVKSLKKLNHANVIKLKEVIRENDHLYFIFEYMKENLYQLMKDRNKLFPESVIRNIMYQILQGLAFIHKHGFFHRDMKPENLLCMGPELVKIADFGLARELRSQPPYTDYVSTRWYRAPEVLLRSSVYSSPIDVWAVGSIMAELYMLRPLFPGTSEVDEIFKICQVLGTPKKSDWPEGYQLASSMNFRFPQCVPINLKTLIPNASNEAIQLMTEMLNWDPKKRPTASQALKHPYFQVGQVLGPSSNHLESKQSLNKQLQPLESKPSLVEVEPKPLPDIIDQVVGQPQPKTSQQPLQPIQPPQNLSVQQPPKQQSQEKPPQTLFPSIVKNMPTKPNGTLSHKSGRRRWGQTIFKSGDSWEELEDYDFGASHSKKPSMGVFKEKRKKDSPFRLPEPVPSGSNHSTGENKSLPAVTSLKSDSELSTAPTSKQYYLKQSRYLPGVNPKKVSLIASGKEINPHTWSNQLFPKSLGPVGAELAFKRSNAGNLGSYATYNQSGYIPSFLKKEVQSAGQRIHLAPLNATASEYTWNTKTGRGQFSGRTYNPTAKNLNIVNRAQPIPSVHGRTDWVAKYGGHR
T8 sequence (Q9NY57 whole entry): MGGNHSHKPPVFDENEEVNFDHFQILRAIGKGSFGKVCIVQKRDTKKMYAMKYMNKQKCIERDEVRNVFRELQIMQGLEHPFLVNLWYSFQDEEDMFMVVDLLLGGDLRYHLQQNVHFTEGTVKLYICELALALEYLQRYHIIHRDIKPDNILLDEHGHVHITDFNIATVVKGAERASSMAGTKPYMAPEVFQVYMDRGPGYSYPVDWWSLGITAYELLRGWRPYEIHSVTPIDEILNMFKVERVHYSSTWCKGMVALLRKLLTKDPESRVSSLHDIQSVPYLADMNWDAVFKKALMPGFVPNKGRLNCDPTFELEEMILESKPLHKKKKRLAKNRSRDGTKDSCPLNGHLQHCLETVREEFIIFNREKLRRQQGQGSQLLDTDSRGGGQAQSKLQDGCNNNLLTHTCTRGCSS
T1 sequence (P47809 2-397 limits assumed): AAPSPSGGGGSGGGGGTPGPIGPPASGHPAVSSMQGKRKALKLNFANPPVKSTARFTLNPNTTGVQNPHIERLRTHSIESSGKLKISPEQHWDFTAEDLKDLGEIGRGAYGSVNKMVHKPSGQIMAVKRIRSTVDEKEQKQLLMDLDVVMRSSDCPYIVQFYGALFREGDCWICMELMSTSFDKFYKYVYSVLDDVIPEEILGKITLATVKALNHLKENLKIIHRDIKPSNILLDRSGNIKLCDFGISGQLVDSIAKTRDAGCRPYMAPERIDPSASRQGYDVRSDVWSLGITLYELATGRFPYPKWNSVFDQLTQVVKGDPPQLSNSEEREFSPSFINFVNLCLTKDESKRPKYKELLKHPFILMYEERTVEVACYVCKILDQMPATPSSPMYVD
T11 sequence (Q99755 whole entry): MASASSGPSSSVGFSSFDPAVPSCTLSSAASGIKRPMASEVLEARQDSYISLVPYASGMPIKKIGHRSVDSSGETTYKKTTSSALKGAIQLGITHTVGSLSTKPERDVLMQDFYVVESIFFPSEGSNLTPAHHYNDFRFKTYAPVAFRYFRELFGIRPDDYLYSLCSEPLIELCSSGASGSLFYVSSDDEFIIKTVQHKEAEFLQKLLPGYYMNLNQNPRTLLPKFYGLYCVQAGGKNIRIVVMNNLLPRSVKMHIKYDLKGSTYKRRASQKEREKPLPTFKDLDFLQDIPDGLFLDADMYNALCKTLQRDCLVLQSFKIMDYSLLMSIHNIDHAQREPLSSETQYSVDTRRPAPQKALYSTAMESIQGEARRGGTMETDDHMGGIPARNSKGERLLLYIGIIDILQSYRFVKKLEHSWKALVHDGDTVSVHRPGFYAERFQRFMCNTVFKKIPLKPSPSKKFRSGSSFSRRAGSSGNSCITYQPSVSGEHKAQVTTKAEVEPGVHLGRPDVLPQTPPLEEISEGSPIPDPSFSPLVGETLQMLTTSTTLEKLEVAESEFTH
T24 sequence (Q96GD4 whole entry): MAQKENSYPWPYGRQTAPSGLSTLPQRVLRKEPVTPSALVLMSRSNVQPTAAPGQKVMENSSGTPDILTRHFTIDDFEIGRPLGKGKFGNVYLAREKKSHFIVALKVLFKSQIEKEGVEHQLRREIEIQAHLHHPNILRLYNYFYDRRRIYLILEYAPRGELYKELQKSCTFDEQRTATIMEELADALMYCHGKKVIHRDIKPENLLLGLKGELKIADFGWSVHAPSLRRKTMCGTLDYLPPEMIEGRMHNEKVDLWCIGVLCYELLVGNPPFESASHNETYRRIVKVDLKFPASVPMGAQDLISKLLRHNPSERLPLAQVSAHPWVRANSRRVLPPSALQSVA

COc1cc(OC)cc(N(CCN[C@H](C)CO)c2ccc3ncc(-c4cnn(C)c4)c(=O)n3c2)c1 [RK-019, (R)-7-((3,5-dimethoxyphenyl) (2-((1-hydroxypropan-2-yl)amino)ethyl)amino)-3-(1-methyl-1H-pyrazol-4-yl)-4H-pyrido [1,2-a]pyrimidin-4-one]
activity at 1 µM (MKK4(m)): 107% | activity at 1 µM (NEK6(h)): 97% | activity at 1 µM (Met(Y1248C)(h)): 85% | activity at 1 µM (WNK3(h)): 110% | activity at 1 µM (BrSK2(h)): 96% | activity at 1 µM (SNRK(h)): 92% | activity at 1 µM (GCK(h)): 98% | activity at 1 µM (STK32B(h)): 123% | activity at 1 µM (Arg(h)): 86% | activity at 1 µM (GCN2(h)): 134% | activity at 1 µM (PIP5K1a(h)): 103% | activity at 1 µM (PIP4K2a(h)): 102% | activity at 1 µM (MEK2(h)): 85% | activity at 1 µM (MAP4K5(h)): 103% | activity at 1 µM (IKKα(h)): 100% | activity at 1 µM (JAK1(h)): 120% | activity at 1 µM (FGFR2(N549H)(h)): -1% | activity at 1 µM (PKBα(h)): 102% | activity at 1 µM (SRPK2(h)): 134% | activity at 1 µM (EphB3(h)): 89% | activity at 1 µM [1]: 101% | activity at 1 µM (PI3KC2g(h)): 102% | activity at 1 µM (MELK(h)): 104% | activity at 1 µM (Aurora-B(h)): 87% | activity at 1 µM (CaMKIV(h)): 113% | activity at 1 µM (Mnk2(h)): 108% | activity at 1 µM (FGFR1(V561M)(h)): 70% | activity at 1 µM (Met(D1246N)(h)): 89% | activity at 1 µM (ALK2(h)): 90% | activity at 1 µM (CLK4(h)): 89% | activity at 1 µM (TrkB(h)): 94% | activity at 1 µM (GRK3(h)): 123% | activity at 1 µM (c-RAF(h)): 94% | activity at 1 µM (DYRK3(h)): 88% | activity at 1 µM (PDHK4(h)): 93% | activity at 1 µM (PKCι(h)): 100% | activity at 1 µM (MAK(h)): 110%
